The target in this assay is Hrh3 protein (Rattus norvegicus, UniProt Q5PPG3).

Structures are written as SMILES.

Hrh3 protein, sequence (Q5PPG3 whole entry): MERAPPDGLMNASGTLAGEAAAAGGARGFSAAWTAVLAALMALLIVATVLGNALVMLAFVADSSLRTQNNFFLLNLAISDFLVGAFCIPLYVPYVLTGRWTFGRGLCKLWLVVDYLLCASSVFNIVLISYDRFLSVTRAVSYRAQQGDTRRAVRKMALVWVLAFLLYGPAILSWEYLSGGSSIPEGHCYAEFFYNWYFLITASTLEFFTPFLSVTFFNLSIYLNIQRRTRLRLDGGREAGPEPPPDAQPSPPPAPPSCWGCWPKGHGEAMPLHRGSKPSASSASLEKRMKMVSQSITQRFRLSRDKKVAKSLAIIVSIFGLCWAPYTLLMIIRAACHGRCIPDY

The Ki is a measure of affinity in units of concentration, obtained from inhibition or displacement. Read a low Ki as tighter binding. `COc1ccc(CN(CCN(C)C)c2ccccn2)cc1` came in with a Ki above 10000 nM.

For `CN/C(=N/CCSCc1nc[nH]c1C)NC#N`, the inhibition constant (Ki) was determined as 8000 nM. This lies in the single-digit micromolar range.

In the case of `CN/C([CH-][N+](=O)[O-])=[NH+]\CCSCc1ccc(CN(C)C)o1`, the Ki was above 10000 nM.

Turning to `C[C@@H](N)Cc1c[nH]cn1`, the affinity, expressed as Ki, was 1.2 nM. That is a single-digit nanomolar value.

The molecule `S=C(NC1CCCCC1)N1CCC(c2cnc[nH]2)CC1` had a Ki of 16 nM.

Molecule `c1c[nH]cn1` gave an inhibitory constant (Ki) above 10000 nM.

On to `Cc1[nH]cnc1CSCCNC(=N)NCCCc1c[nH]cn1` [2-[3-(1H-imidazol-5-yl)propyl]-1-(2-{[(5-methyl-1H-imidazol-4-yl)methyl]sulfanyl}ethyl)guanidine], for which the Ki came out at 46 nM.

The molecule `C/N=C(\S)NCCSCc1[nH]cnc1C` [CAS_34839-70-8] registered a Ki above 10000 nM.

With `CNCCc1c[nH]cn1` [N(alpha)-Methylhistamine], the inhibition constant Ki came to 0.45 nM. This counts as sub-nanomolar.

`NC(Cc1c[nH]cn1)C(=O)O` (centres undefined) [NSC_773] displayed an inhibition constant Ki above 10000 nM.

`CN(C)CCCSC(=N)N` [[3-(carbamimidoylsulfanyl)propyl]dimethylamine] came in with an inhibitory constant (Ki) of 440 nM.

On to `NCCc1c[nH]cn1` [[3H]histamine], for which the affinity, expressed as Ki, was 11 nM.

On to `CNC(=NCCSCc1csc(N=C(N)N)n1)NC#N` [[3H]tiotidine], for which the Ki is above 10000 nM.

The molecule `CN(C)CCC(c1ccc(Cl)cc1)c1ccccn1` (centres undefined) [clorfeniramina] had a Ki above 10000 nM.
